Laboratory results published in patent US11111259B2, “Acylsulfonamide derivatives for treating senescence-associated diseases and disorders” (Unity Biotechnology, Inc., priority 2015, dated 2021).

What was measured:
[1] = test system: IMR-90 SnC (irradiated senescent IMR90 cells); assay: Senolysis assay (CellTiter-Glo viability); type: cell-based, human; conditions: for EC50: Homo sapiens, IMR-90, light or radiation study, 72 h, X-ray irradiated senescent IMR90 cells, viability three days after compound addition; for SI (ratio of EC50 of non-senescent cells to EC50 of senescent cells): IMR90 non-senescent vs senescent cells
Description: IMR90 cells are maintained in DMEM supplemented with 10% FBS. To prepare a senescent population, cells were trypsinized, diluted to 50,000 per mL, and irradiated with 10-15 Gy of X-ray irradiation. Irradiated cells were plated at 5000 cells per well in one third of a 96-well plate and maintained for two weeks prior to the assay. Four days prior to the assay, non-senescent IMR90s were plated at 2500 per well in the second third of the plate. One day prior to the assay, 2500 non-senescent cells were plated in the final third of the plate. Compounds were prepared as a 200×DMSO dilution series then diluted to 1× in media immediately before adding to cells. Three days after compound addition, cell viability was measured using CellTiter-Glo reagent from Promega. Viability was calculated relative to a DMSO control and EC50 values are calculated in Prism GraphPad. […] The selectivity (SI) of the compounds described herein is a ratio of the EC50 of non-senescent cells to the EC50 of senescent cells. The SI of the compounds described herein is 10 or above for “A” selectivity, between 2 and 10 for “B” selectivity or 2 or less for “C” selectivity.

[2] = target: T1, BCL-w (Homo sapiens, UniProt Q92843); assay: BCL-binding assay (AlphaLISA competition, BIM peptide); conditions: 6xHis BCL-w with biotinylated BIM peptide, 24 hr incubation
T1 sequence (Q92843 1-193): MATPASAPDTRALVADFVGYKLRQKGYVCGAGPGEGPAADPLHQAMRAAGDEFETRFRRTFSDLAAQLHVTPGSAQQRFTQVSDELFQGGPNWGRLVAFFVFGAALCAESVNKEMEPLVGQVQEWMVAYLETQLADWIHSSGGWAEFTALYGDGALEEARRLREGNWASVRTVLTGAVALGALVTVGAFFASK
Description: (§1) Compounds were prepared as 400× DMSO stock solutions in a 1:4 dilution series then diluted […] in assay buffer (25 mM HEPES pH 7.5, 100 mM NaCl, 0.1% BSA, 0.005% Tween) immediately before use. Aliquots of 400 nM 6xHis-tagged BCL-xL, BCL-2, and BCL-w were thawed on ice and diluted to 0.4 (BCL-XL) or 0.8 (BCL-W and 2) nM in assay buffer. Aliquots of biotinylated BIM and BAD peptides were diluted in assay buffer to 120 and 60 nM respectively. Ten microliters of biotinylated peptide were added to wells of a 96-well PCR plate, followed by ten microliters of inhibitor, then ten microliters of BCL protein, BCL-XL with BAD and BCL-W/2 with BIM. The plates were sealed and incubated at room temperature. After 24 hr, 0.16 μg Anti-His conjugated AlphaLISA acceptor beads were added in 5 μL assay buffer. After one hour at room temperature, 0.16 μg AlphaScreen streptavidin donor beads were added in 5 μL assay buffer and plates were incubated an additional 30 min in the dark. Two 17 μL aliquots of each reaction were plated in a Perkin Elmer 384-well proxiplate, and plates were scanned for using a Perkin Elmer Enspire plate reader. Kd values were calculated in Prism Graph Pad using a one site competitive binding model and previously determined Kd values for each protein peptide pair. […]

[3] = target: BCL-2 (Homo sapiens, UniProt P10415); assay: as above; conditions: 6xHis BCL-2 with biotinylated BIM peptide, 24 hr incubation
Description: as §1

[4] = target: BCL-xL (Homo sapiens, UniProt Q07817); assay: BCL-binding assay (AlphaLISA competition, BAD peptide); conditions: 6xHis BCL-xL with biotinylated BAD peptide, 24 hr incubation
Description: as §1

BCL-xL, sequence (Q07817 whole entry, species assumed): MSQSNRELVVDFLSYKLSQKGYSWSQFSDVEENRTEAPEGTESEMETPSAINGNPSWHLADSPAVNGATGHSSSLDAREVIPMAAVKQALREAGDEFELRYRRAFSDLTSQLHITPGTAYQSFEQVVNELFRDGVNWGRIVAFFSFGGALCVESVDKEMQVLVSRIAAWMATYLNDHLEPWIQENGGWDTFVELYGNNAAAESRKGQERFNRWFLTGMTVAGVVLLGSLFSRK
BCL-2, sequence (P10415 whole entry, species assumed): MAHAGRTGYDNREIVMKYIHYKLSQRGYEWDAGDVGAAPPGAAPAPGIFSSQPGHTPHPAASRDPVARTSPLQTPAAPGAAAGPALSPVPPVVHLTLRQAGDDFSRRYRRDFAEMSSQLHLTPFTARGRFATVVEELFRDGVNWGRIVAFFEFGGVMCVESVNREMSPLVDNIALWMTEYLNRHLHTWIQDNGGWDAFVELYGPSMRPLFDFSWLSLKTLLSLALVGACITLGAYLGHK

Row | Structure (SMILES) | EC50 [1] [nM] | Kd [2] [nM] | Kd [3] [nM] | Kd [4] [nM] | SI (ratio of EC50 of non-senescent cells to EC50 of senescent cells) [1]
1 | CC1(C)CCC(c2ccc(Cl)cc2)=C(CN2CCN(c3ccc(C(=O)NS(=O)(=O)c4ccc(N[C@H](CCN5CCC(CP(=O)(OCOC(=O)C(C)(C)C)OCOC(=O)C(C)(C)C)CC5)CSc5ccccc5)c(S(=O)(=O)C(F)(F)F)c4)cc3)CC2)C1 [Compound 46] | > 10000 | > 50 | 1 to 10 | 1 to 10 | –
2 | CC1(C)CCC(c2ccc(Cl)cc2)=C(CN2CCN(c3ccc(C(=O)NS(=O)(=O)c4ccc(N[C@H](CCN5CCN(CCP(=O)(O)O)CC5)CSc5ccccc5)c(S(=O)(=O)C(F)(F)F)c4)cc3)CC2)C1 [Compound 13] | > 10000 | 1 to 10 | < 1 | < 1 | –
3 | CCOP(=O)(CCCN1CCN(CC[C@H](CSc2ccccc2)Nc2ccc(S(=O)(=O)NC(=O)c3ccc(N4CCN(CC5=C(c6ccc(Cl)cc6)CCC(C)(C)C5)CC4)cc3)cc2S(=O)(=O)C(F)(F)F)CC1)OCOC(=O)OC(C)C (some centres unmarked) [Compound 36] | 1000 to 10000 | 10 to 50 | < 1 | < 1 | B (between 2 and 10)
4 | CCOP(=O)(O)CCN(C)CC[C@H](CSc1ccccc1)Nc1ccc(S(=O)(=O)NC(=O)c2ccc(N3CCN(CC4=C(c5ccc(Cl)cc5)CCC(C)(C)C4)CC3)cc2)cc1S(=O)(=O)C(F)(F)F [Compound 11] | > 10000 | 1 to 10 | < 1 | < 1 | C (2 or less)
5 | CCOP(=O)(CCCN1CCN(CC[C@H](CSc2ccccc2)Nc2ccc(S(=O)(=O)NC(=O)c3ccc(N4CCN(CC5=C(c6ccc(Cl)cc6)CCC(C)(C)C5)CC4)cc3)cc2S(=O)(=O)C(F)(F)F)CC1)OCC [Compound 23] | < 1000 | 1 to 10 | < 1 | < 1 | A (10 or above)
6 | CCOP(=O)(CCN1CCN(CC(CSc2ccccc2)Nc2ccc(S(=O)(=O)NC(=O)c3ccc(N4CCN(CC5=C(c6ccc(Cl)cc6)CCC(C)(C)C5)CC4)cc3)cc2S(=O)(=O)C(F)(F)F)CC1)OCC (centres unmarked) [Compound 35, Diethyl (2-(4-(2-((4-(N-(4-(4-((4′-chloro-4,4-dimethyl-3,4,5,6-tetrahydro-[1,1′-biphenyl]-2-yl)methyl)piperazin-1-yl)benzoyl)sulfamoyl)-2-((trifluoromethyl)sulfonyl)phenyl)amino)-3-(phenylthio)propyl)piperazin-1-yl)ethyl)phosphonate] | 1000 to 10000 | > 50 | < 1 | 1 to 10 | C (2 or less)
7 | CCOP(=O)(CN1CCN(CC[C@H](CSc2ccccc2)Nc2ccc(S(=O)(=O)NC(=O)c3ccc(N4CCN(Cc5ccccc5-c5ccc(Cl)cc5)CC4)cc3)cc2S(=O)(=O)C(F)(F)F)CC1)OCC [Compound 51, Diethyl (R)-((4-(3-((4-(N-(4-(4-((4′-chloro-[1,1′-biphenyl]-2-yl)methyl)piperazin-1-yl)benzoyl)sulfamoyl)-2-((trifluoromethyl)sulfonyl)phenyl)amino)-4-(phenylthio)butyl)piperazin-1-yl)methyl)phosphonate] | 1000 to 10000 | 1 to 10 | < 1 | < 1 | B (between 2 and 10)
8 | CC1(C)CCC(c2ccc(Cl)cc2)=C(CN2CCN(c3ccc(C(=O)NS(=O)(=O)c4ccc(N[C@H](CCN5CCC(CP(=O)(O)O)CC5)CSc5ccccc5)c(S(=O)(=O)C(F)(F)F)c4)cc3)CC2)C1 [Compound 47] | > 10000 | 1 to 10 | < 1 | < 1 | –
9 | CCOP(=O)(O)CCCN1CCN(CC[C@H](CSc2ccccc2)Nc2ccc(S(=O)(=O)NC(=O)c3ccc(N4CCN(CC5=C(c6ccc(Cl)cc6)CCC(C)(C)C5)CC4)cc3)cc2S(=O)(=O)C(F)(F)F)CC1 [Compound 31] | > 10000 | 1 to 10 | < 1 | < 1 | –
10 | CCOP(=O)(CN1CCN(CC[C@H](CSc2ccccc2)Nc2ccc(S(=O)(=O)NC(=O)c3ccc(N4CCN(Cc5ccccc5-c5ccc(Cl)cc5)CC4)cc3)cc2S(=O)(=O)C(F)(F)F)CC1)OCOC(=O)OC(C)C (stereo partly drawn) [Compound 56, (((4-((R)-3-((4-(N-(4-(4-((4′-chloro-[1,1′-biphenyl]-2-yl)methyl)piperazin-1-yl)benzoyl)sulfamoyl)-2-((trifluoromethyl)sulfonyl)phenyl)amino)-4-(phenylthio)butyl)piperazin-1-yl)methyl)(ethoxy)phosphoryl)oxy)methyl isopropyl carbonate] | > 10000 | 1 to 10 | < 1 | < 1 | –
11 | CC1(C)CCC(c2ccc(Cl)cc2)=C(CN2CCN(c3ccc(C(=O)NS(=O)(=O)c4ccc(N[C@H](CCN5CCN(CCCP(=O)(OCOC(=O)C(C)(C)C)OCOC(=O)C(C)(C)C)CC5)CSc5ccccc5)c(S(=O)(=O)C(F)(F)F)c4)cc3)CC2)C1 [Compound 40] | > 10000 | 10 to 50 | < 1 | < 1 | B (between 2 and 10)
12 | CCOP(=O)(CCN1CCN(CC[C@H](CSc2ccccc2)Nc2ccc(S(=O)(=O)NC(=O)c3ccc(N4CCN(CC5=C(c6ccc(Cl)cc6)CCC(C)(C)C5)CC4)cc3)cc2S(=O)(=O)C(F)(F)F)CC1)OCOC(=O)C(C)(C)C (some centres unmarked) [Compound 38] | 1000 to 10000 | 10 to 50 | < 1 | < 1 | A (10 or above)
13 | CCOP(=O)(CN1CCN(CC[C@H](CSc2ccccc2)Nc2ccc(S(=O)(=O)NC(=O)c3ccc(N4CCN(CC5=C(c6ccc(Cl)cc6)CCC(C)(C)C5)CC4)cc3)cc2S(=O)(=O)C(F)(F)F)CC1)OCOC(=O)OC(C)C (stereo partly drawn) [Compound 39, [[4-[(3R)-3-[4-[[4-[4-[[2-(4-Chlorophenyl)-5,5-dimethyl-cyclohexen-1-yl]methyl]piperazin-1-yl]benzoyl]sulfamoyl]-2-(trifluoromethylsulfonyl)anilino]-4-phenylsulfanyl-butyl]piperazin-1-yl]methyl-ethoxy-phosphoryl]oxymethyl isopropyl carbonate] | < 1000 | 10 to 50 | < 1 | < 1 | A (10 or above)
14 | CC(C)OP(=O)(CN1CCN(CC[C@H](CSc2ccccc2)Nc2ccc(S(=O)(=O)NC(=O)c3ccc(N4CCN(CC5=C(c6ccc(Cl)cc6)CCC(C)(C)C5)CC4)cc3)cc2S(=O)(=O)C(F)(F)F)CC1)OC(C)C [Compound 15] | 1000 to 10000 | 10 to 50 | < 1 | < 1 | B (between 2 and 10)
15 | CCOP(=O)(O)CC1CCN(CC[C@H](CSc2ccccc2)Nc2ccc(S(=O)(=O)NC(=O)c3ccc(N4CCN(CC5=C(c6ccc(Cl)cc6)CCC(C)(C)C5)CC4)cc3)cc2S(=O)(=O)C(F)(F)F)CC1 [Compound 49, Ethylhydrogen((1-((R)-3-((4-(N-(4-(4-((4′-chloro-4,4-dimethyl-3,4,5,6-tetrahydro-[1,1′-biphenyl]-2-yl)methyl)piperazin-1-yl)benzoyl)sulfamoyl)-2-((trifluoromethyl)sulfonyl)phenyl)amino)-4-(phenylthio)butyl)piperidin-4-yl)methyl)phosphonate] | – | 1 to 10 | < 1 | < 1 | –
